Measurements from patent US20080200556A1, “Amine Compounds And Inhibiting Neurotrasmitter Reuptake” (MAYO FOUNDATION FOR MEDICAL EDUCATION AND RESEARCH, priority 2004, published 2008).

Key:
[1] = biological target: human dopamine transporter (hDAT) (Homo sapiens, UniProt Q01959); test: biochemical
Experimental: (§1) The cells were incubated in 10% CO2, 90% air at 37° C. and 100% humidity. The hNET cell cultures contained 250 μg/mL geneticin sulfate. The cells were grown to 70-80% confluency prior to harvesting.
(§2) Cell membranes containing hSERT, hNET, or hDAT were prepared from the cell lines to assay ligand binding for each of the transporters. […] The washed cells were incubated for 5 minutes at 37° C. in 10 mL solution 1 containing 100 mM ethylene glycol-bis N,N,N′,N′-tetraacetic acid (EGTA). The cells were then scraped from the flask surface with a rubber spatula, placed into a centrifuge tube, and collected by centrifugation at 1000×g for 5 minutes at 4° C. The resulting supernatant was discarded, and the cell pellet was resuspended in 0.5 to 1.0 mL of the appropriate binding buffer (described below). The resuspended cell pellet was homogenized using a Polytron for 10 seconds at setting 6. The resulting homogenate was centrifuged at about 36,000×g for 10 minutes at 4° C. The supernatant was discarded, and the pellet was resuspended in the same volume of the appropriate binding buffer and centrifuged again. […]
To assess binding to the cloned HDAT, cells expressing HDAT were homogenized in 50 mM Tris-HCl with 120 mM NaCl (pH 7.4). […] Radioactivity was measured with a Beckman liquid scintillation counter (LS 5000TD). […]

Male Sprague-Dawley rats = test: Forced swim test in rats; format: in vivo, rat; conditions: i.p., imipramine 15 mg/kg, PRC025 10 mg/kg; for Time immobile (Counts/5 min) / Time swimming (Counts/5 min): mean ±SEM, *P < 0.05 vs. saline
Experimental: When rats are placed in a cylinder of water from which they cannot escape, they will remain immobile in the water for the majority of the test.
Water was changed between trials, and the procedure involved a pretest and a 5-minute test separated by 24 hours. During the pretest, rats (adapted to the experimental room for no less than 1 hour) were placed in the cylinder for 15 minutes. Following this initial exposure, the rats were dried with towels and transferred to a “drying cage” situated under a warming lamp. […] The following day, rats were transferred to the experimental room and acclimated for at least 1 hour.
The rat was considered immobile when floating motionless or making only those movements necessary to keep its head above the surface of the water. Scores for each behavior (swimming or immobility) were expressed as total counts per […]. Statistical analysis was performed using ANOVA followed by the Tukey test for post-hoc comparisons.

Male C57B1/6J mice = test: Tail suspension test in mice; format: in vivo, mouse; conditions: PRC025 10 mg/kg; for Time immobile (Counts/6 min) / Time mobile (Counts/6 min): i.p. 30 minutes before testing, imipramine 15 mg/kg (table), mean ±SEM, *P < 0.05 vs. saline
Text: When mice are suspended by their tail, there is an initial period of agitation, followed by immobility. This test identifies antidepressant compounds, which decrease the duration of immobility.
Mice were then individually suspended by their tails 35 cm above the tabletop using an adhesive tape placed 1 cm from the tip of the tail. Behavior was scored every 5 seconds throughout the 6-minute test as either mobile or immobile. Mice were considered immobile only when hanging passively and completely motionless. Scores for each behavior were expressed as total counts per […]. Statistical analysis was performed using ANOVA followed by the Tukey test for post-hoc comparisons.

[2] = biological target: T1, human serotonin transporter (hSERT) (Homo sapiens, UniProt P31645)
T1 sequence (P31645 whole entry): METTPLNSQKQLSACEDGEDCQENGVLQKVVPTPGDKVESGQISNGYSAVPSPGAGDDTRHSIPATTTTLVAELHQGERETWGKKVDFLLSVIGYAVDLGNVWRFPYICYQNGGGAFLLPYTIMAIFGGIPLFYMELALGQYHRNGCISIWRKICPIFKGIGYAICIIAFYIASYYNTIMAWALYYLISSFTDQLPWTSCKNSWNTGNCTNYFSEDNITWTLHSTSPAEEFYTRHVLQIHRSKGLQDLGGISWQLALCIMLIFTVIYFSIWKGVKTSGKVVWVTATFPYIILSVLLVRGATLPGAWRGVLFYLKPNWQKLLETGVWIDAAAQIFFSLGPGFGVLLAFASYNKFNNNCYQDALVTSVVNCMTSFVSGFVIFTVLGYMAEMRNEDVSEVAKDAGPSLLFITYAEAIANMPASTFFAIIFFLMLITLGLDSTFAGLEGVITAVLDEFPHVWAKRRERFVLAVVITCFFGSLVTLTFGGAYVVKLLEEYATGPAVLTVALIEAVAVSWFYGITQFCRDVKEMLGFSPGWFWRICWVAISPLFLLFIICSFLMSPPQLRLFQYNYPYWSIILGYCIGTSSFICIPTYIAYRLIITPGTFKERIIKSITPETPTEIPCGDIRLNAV
Experimental: as §1, §2
(§3) Radioligand binding assays for the indicated transporters were performed as follows. […] Radioactivity was measured with a Beckman liquid scintillation counter (LS 5000TD). […]

[3] = biological target: T1, human serotonin transporter (hSERT); test: biochemical
Experimental: as §1, §2, §3

SMILES	Kd [1] [nM]	Time immobile (Counts/5 min) (Male Sprague-Dawley rats)	Time swimming (Counts/5 min) (Male Sprague-Dawley rats)	Time immobile (Counts/6 min) (Male C57B1/6J mice)	Time mobile (Counts/6 min) (Male C57B1/6J mice)	binding to hSERT (in words) [2]	Kd [3] [nM]	swimming behavior versus saline (in words) (Male Sprague-Dawley rats)	mobile behavior versus saline (in words) (Male C57B1/6J mice; i.p., imipramine)
CNCC(c1ccc2ccccc2c1)C(O)c1ccccc1 (racemic) [Compound A, (2RS,3RS)-N-methyl-3-hydroxy-2-(2′-naphthyl)-3-phenylpropylamine]	134								
CN(C)CC(c1ccc2ccccc2c1)C(O)C1CCCCC1 (racemic) [PRC025, (2RS,3SR)-N,N-dimethyl-3-cyclohexyl-3-hydroxy-2-(2′-naphthyl)propylamine]	54	28 ± 3* Counts/5 min	30 ± 3* Counts/5 min	12 ± 3* Counts/6 min	60 ± 3* Counts/6 min	strong binding	4.1		
CN(C)CCCN1c2ccccc2CCc2ccccc21 [Imipramine, imipramine]		23 ± 3* Counts/5 min	37 ± 3* Counts/5 min	21 ± 4* Counts/6 min	51 ± 4* Counts/6 min			statistically more swimming behavior than rats treated with saline	statistically more mobile behavior than mice treated with saline
